Results as given in patent publication EP1032561B1, “SUBSTITUTED OXIMES AS NEUROKININ ANTAGONISTS” (SCHERING CORPORATION, priority 1997, dated 1999).

Tests used:
NK1 receptor = NK1 receptor (Homo sapiens, UniProt P25103); test: neurokinin receptor binding assay, NK1
Description: (§1) The in vitro and in vivo activity of the compounds of formula I can be determined by various procedures known in the art, such as a test for their ability to inhibit the activity of the NK1 agonist Substance P, an isolated hamster trachea NK2 assay, a test of the effect of NK1 antagonists on Substance P-induced airway microvascular leakage, measurement of NK2 activity in vivo in guinea pigs, measurement of bronchoconstriction due to NKA, and neurokinin receptor binding assay(s). Typical procedures are described in WO96/34857, published November 7, 1996. NK3 activity is determined by following a procedure similar to that described in the literature, e.g., Molecular Pharmacol., 48 (1995), p. 711-716.
(§2) % Inhibition is the difference between the percent of maximum specific binding (MSB) and 100%. The percent of MSB is defined by the following equation, wherein "dpm" is disintegrations per minute: % MSB =((dpm of unknown) - (dpm of nonspecific binding))/((dpm of total binding) - (dpm of nonspecific binding))X 100 [formula]

NK2 receptor = biological target: T1, NK2 receptor (Homo sapiens, UniProt P21452); test: neurokinin receptor binding assay, NK2
T1 sequence (P21452 1-398): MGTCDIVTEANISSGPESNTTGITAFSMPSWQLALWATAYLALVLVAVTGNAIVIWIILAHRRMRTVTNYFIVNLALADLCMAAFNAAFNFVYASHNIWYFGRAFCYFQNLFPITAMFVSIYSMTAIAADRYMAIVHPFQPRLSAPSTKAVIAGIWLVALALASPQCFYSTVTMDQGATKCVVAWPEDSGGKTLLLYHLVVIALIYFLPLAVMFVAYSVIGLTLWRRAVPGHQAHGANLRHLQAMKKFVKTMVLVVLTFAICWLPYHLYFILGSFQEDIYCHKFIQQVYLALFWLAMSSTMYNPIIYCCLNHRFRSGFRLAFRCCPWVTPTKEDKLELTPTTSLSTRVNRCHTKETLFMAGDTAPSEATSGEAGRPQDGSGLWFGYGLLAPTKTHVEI
Description: as §1, §2

NK1 receptor, sequence (P25103 whole entry, species assumed): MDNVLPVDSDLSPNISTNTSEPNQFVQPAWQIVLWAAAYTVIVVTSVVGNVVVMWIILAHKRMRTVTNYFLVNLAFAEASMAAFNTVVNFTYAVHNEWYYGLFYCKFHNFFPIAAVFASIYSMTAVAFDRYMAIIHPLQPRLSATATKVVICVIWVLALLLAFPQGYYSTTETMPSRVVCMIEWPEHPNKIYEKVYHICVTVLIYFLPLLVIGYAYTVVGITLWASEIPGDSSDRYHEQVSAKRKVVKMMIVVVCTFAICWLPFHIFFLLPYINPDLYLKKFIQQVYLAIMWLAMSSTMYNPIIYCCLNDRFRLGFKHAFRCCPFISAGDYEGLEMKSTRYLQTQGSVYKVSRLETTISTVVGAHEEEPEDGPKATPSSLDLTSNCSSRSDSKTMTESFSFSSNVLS

CON=C(CN(C)C(=O)c1cc(C(F)(F)F)cc(C(F)(F)F)c1)C(CCN1CCC(O)(c2ccccc2)CC1)c1ccc(Cl)c(Cl)c1 (centres unmarked) [Example 11]
Ki (NK1 receptor): 3.6 nM
Ki (NK2 receptor): 9.2 nM
